Test results: patent US12728098B2, “Methods of producing extracellular vesicles” (LONZA SALES AG, priority 2019, dated 2026)

Experiments:
splenocytes = assay: Tumor antigen-specific IFN-γ production in splenocytes (Trp2, GP100 & Tyr peptides); format: in vivo, mice; conditions: two IT doses, day 4, FIG. 13G
Experimental: FIG. 13B provides representative H&E stained images from PBS, CDN2 (20 μg), and exoCDN2 (0.12 μg) treated samples. FIG. 13C is a table showing the number of complete responders by histopathological analysis. […] FIG. 13F is a graphical representation of tumor growth after CD8 T cell depletion in B16F10 tumor bearing mice following administration of the IgG (10 mg/kg) or anti-CD8 antibody (10 mg/kg) intraperitoneally, one day before IT injection (n=5 per group). Blue arrows indicate intraperitoneal injection days (FIG. 13F). […] Data are presented as means±s.e.m.
We next evaluated the capacity of exoSTING to induce systemic, antigen specific T cell responses in the B16F10 tumor model. Several tumor-associated CD8-dependent antigens have been identified as dominant antigens from B16F10 tumor cells (Kreiter et al., Nature 520, 692-696 (2015), which is incorporated by reference herein in its entirety).

human PBMC = assay: IFN-β production in human PBMC supernatant; format: cell-based; conditions: FIG. 12A
Experimental: We compared the activity of co-administered exosomes and free CDN with exoSTING in in vitro PBMC assays.
These populations of exosomes were next examined for their capacity activate STING pathway as measured by IFN-β production. […] These CDN-loaded exosomes were assayed in vitro for their potential to induce IFN-β production in PBMC cultures. EC50 values and maximal IFN-β cytokine production (Cmax) were assessed from multiple donors.

[1] = test system: T cells stimulated by anti-CD3 and anti-CD28; assay: IFN-β production in T cells stimulated by anti-CD3 and anti-CD28; format: cell-based, human; conditions: FIG. 17F
Excerpt: (§1) FIGS. 17F and 17G show representative dose-response curves of IFN-β production (FIG. 17F) and cytotoxicity (FIG. 17G) in stimulated T cells after treating with free CDN2 and exoCDN2. T cells were purified from human PBMCs and stimulated with anti-CD3/anti-CD28.
(§2) Next, we characterized the effect of exoSTING for free CDN on naïve or TCR stimulated T cells. We purified T cells and treated them with a dose titration of exoSTING or free CDN and compared IFNβ production in the presence or absence of TCR stimulation. […] We next characterized induction of T cell death using Cytotox dye staining following exoSTING or free CDN2 treatment in T cells stimulated with anti-CD3 and anti-CD28. Following free CDN2 treatment, we observed a dose dependent increase in T cell death (up to ~20% of T cells) as measured by Cytotox dye staining (FIG. 17G). […] Importantly, exoSTING preserves the viability of TCR stimulated T cells.

naïve T cells = assay: IFN-β production in naïve T cells; format: cell-based, human
Excerpt: as §2

[2] = test system: T cells stimulated with anti-CD3 and anti-CD28; format: cell-based, human; conditions: FIG. 17G
Excerpt: as §1, §2

B16F10 tumor = assay: B16F10 subcutaneous tumor growth after intratumoral injection; format: in vivo, C57BL/6 mice; conditions: 0.1 μg CDN2, IT, FIG. 12F
Experimental: C57BL/6 mice were implanted subcutaneously with 1×10^6 B16F10 cell on right flank of mice. Additional implantation of tumors is specified in each legend. When tumor volumes reached 50-100 mm^3, testing agents were injected intratumorally 3 times with 3 days interval. Red arrows in the graph indicate IT injection days. Tumor growth were measured over time. n=5 per group. […] RLU: Relative Luminescent Unit. ****, P<0.0001 by two-way ANOVA with Tukey's multiple comparison test for tumor growth studies. Data are presented as means±s.e.m. (FIGS. 12D-12F).
Data are presented as means±s.e.m. RLU: Relative Luminescent Unit. […]
We have previously identified and characterized exosome-specific surface glycoproteins using unbiased proteomic analysis and identified the immunoglobulin super family member PTGFRN as a protein that is enriched on human exosomes and contains nine predicted N-linked glycosylation sites (see Dooley et al., Cancer Res. 79(13 Suppl), Abstract nr 2150 (2019), which is incorporated by reference herein in its entirety). […] These populations of exosomes were next examined for their capacity activate STING pathway as measured by IFN-β production. […] EC50 values and maximal IFN-β cytokine production (Cmax) were assessed from multiple donors. […]

[3] = Pharmacokinetics of CDN in injected B16F10 tumors, LC-MS/MS; format: in vivo, C57BL/6 mice; conditions: injected tumor
Experimental: (§3) C57BL/6 mice were implanted subcutaneously with 1×10^6 B16F10 cells. FIGS. 14A and […] are graphical representations showing the concentration of CDN2 in tumors (FIG. 14A) and plasma (FIG. 14B) as measured by LC-MS/MS at 5 minutes, 30 minutes, 2 hours, 6 hours, 24 hours, and 48 hours after single IT injection (n=3 per group at each time point) in C57BL/6 mice implanted subcutaneously with 1×10^6 B16F10 cells. FIGS. 14C-14E are graphs showing the relative expression of IFN-β (FIG. 14C), CXCL9 (FIG. 14D), and CXCL10 (FIG. 14E) genes as measured by RT-qPCR, normalized against the housekeeping gene RPS13. FIGS. 14F-14H are graphs showing serum levels of IFN-β (FIG. 14F), TNF-α (FIG. 14G), and IL-6 (FIG. 14H) (n=5 per group). Data are presented as means±s.e.m. *, P<0.05; **, P<0.01; ***, P<0.001; ****, P<0.0001 by one-way ANOVA with Tukey's multiple comparison test.
(§4) A major limitation of IT administration of free CDN is its rapid dissemination into the systemic circulation (see Sivick et al., Cell Rep. 25, 3074-3085.e5 (2018)). […] This reduces the effectiveness of the CDN to elicit a productive immune response in the tumor resulting in higher doses of free CDN required for efficacy. In B16F10 tumors after injection of exoSTING or free CDN, we measured the amount of CDN in tumors and blood over time.

[4] = CDN in plasma / systemic circulation after IT injection, LC-MS/MS; format: in vivo, C57BL/6 mice
Experimental: as §3, §4
Further, free CDN2 is cleared rapidly in the systemic circulation (106 mL/hr).

B16F10 tumors = assay: Histology of injected B16F10 tumors (H&E, IFN-β mRNA, CD8, F4/80); format: in vivo; conditions: free CDN2 20 μg, exoSTING 0.1 μg, 4 and 24 hours after two injections, FIG. 15A
Experimental: In order to distinguish the immune stimulatory versus immune ablative mechanisms of action between free CDN2 and exoSTING, we compared the effects of efficacious doses of free CDN2 (20 μg) or exoSTING (0.1 μg) after IT dosing in a therapeutic setting with the B16F10 model.

[5] = test system: CD8+ T cells and XCR1+ DCs in B16F10 tumors; assay: Flow cytometry of B16F10 tumors after two IT injections; format: in vivo, mice; conditions: 20 μg, FIG. 15D
Experimental: FIG. 15 is a graphical representation of IFN-β positive area. FIG. 15C is a graphical representation of CD8 positive cells. FIGS. 15D-15E are graphical representations of the percentage of CD8 T cells in live CD45^+ cells in tumors (FIG. 15D) and CD86 expression on dendritic cells (FIG. 15E) as measured by flow cytometry after 2 doses of PBS, CDN2 (20 μg), and exoCDN2 (0.2 μg) into B16F10 tumors (n=5 per group). *, P<0.05; **, P<0.01; ****, P<0.0001 by one-way ANOVA with Tukey's multiple comparison test; n.s., non-significant.
We also assessed CD8^+ T cell and XCR1^+ DC activation after two IT injections of exoSTING and free CDN2 by flow cytometry. […] This increase in CD8^+ T cell is consistent with the increased CXCL9 and CXCL10 production following exoSTING treatment (FIGS. 14D and 14E). […] The enhanced activation of this DC subset seen with exoSTING but to a lesser degree with free CDN, is consistent with the observed superiority of anti-tumor activity of exoSTING in the B16F10 model (FIGS. 12 and 13).

[6] = test system: global gene expression in B16F10 tumors; assay: RNA sequencing of B16F10 tumors after 1 or 2 IT injections; format: in vivo, mice; conditions: after 2 doses, exoSTING 0.1 μg, free CDN2 20 μg, FIG. 16E
Experimental: FIGS. 16A-16C are box plots showing the relative expression of IFN-β (FIG. 16A), CD274 (FIG. 16B), and CXCL9 (FIG. 16C) as measured by NanoString in RNA samples collected four hours after IT injection of PBS, CDN2 (0.1, 20, or 100 μg), and exoCDN2 (0.001, 0.01, or 0.1 μg) into B16F10 tumors. Data are presented as means±s.e.m. *, P<0.05; **, P<0.01; ***, P<0.001; ****, P<0.0001 by one-way ANOVA with Tukey's multiple comparison test. […] All genes were compared to PBS treatment. […] Adjusted P values are indicated.
To further characterize the immune pathway activation, we evaluated the global gene expression changes after 1 or 2 IT injections of efficacious doses of exoSTING (0.1 μg) and free CDN2 (20 μg) by RNA sequencing. All samples were compared to PBS treatment. […] Tcf7 (which encodes TCF1) is a key transcription factor expressed in the stem-like progenitor CD8^+ T cells (Siddiqui et al., Immunity. 50, 195-211.e10 (2019)). This cell subset is required for response to checkpoint inhibitor therapies. (Siddiqui, 2019). […] This loss may underlie the lack of immunological memory response to free CDN.
In contrast, high doses of free CDN decrease the expression of these key genes as well as reducing the expression of APC markers.

Row | SMILES | increase in the number of IFN-γ positive spots compared to PBS control (splenocytes; 0.2 μg) | IFN-γ positive spots compared to PBS control (splenocytes; 20 μg) | EC50 (human PBMC) [µM] | EC50 [1] [µM] | IFN-β production (naïve T cells) | T cell death by Cytotox dye staining (maximum, dose dependent) [2] | tumor growth (B16F10 tumor) | AUC ([3]; 0.3 μg single IT) [ng·h/mL] | CL ([3]; 0.3 μg single IT) [mL/h] | Cmax ([3]; 0.3 μg single IT) | T1/2 ([3]; 0.3 μg single IT) [h] | AUC ([3]; 30 μg single IT) | CL ([3]; 30 μg single IT) [mL/h] | Cmax ([3]; 30 μg single IT) | T1/2 ([3]; 30 μg single IT) [h] | detection in the plasma at the 30-minute timepoint ([4]; 30 μg IT) | clearance in the systemic circulation ([4]; free CDN2 after IT injection (30 μg)) [mL/h] | tissue damage by H&E staining (B16F10 tumors) | number of viable CD8+ T cells compared PBS control [5] | Tcf7 levels [6]
1 | Nc1ncnc2c1ncn2[C@@H]1O[C@@H]2COP(O)(=S)O[C@@H]3C(O)[C@@H](COP(O)(=S)O[C@H]2[C@H]1O)O[C@H]3n1cnc2c(N)ncnc21 (some centres unmarked) [CDN1, ML RR-S2] | failed to induce IFN-γ positive spots | failed to induce IFN-γ positive spots |  |  |  |  |  |  |  |  |  |  |  |  |  |  |  |  |  | 
2 | Nc1ncnc2c1ncn2[C@@H]1O[C@@H]2COP(O)(=S)O[C@H]3[C@@H](F)[C@H](n4cnc5c(=O)[nH]cnc54)O[C@@H]3COP(O)(=S)O[C@H]2[C@H]1F (some centres unmarked) [CDN2, cAIM(PS)2 Difluor (Rp/Sp)] |  |  | ~9.7 | ~8.2 | no IFN-β production was observed | ~ 20 % of T cells | Neither free CDN2 (0.1 μg) or co-administered PTGFRN^+/+ exosomes mixed with free CDN2 (0.1 μg) resulted in measurable tumor growth inhibition | 799 | 0.375 | 1,240 ng/mL | 0.620 | 97,300 ng · hr/mL | 0.308 | 13,800 ng/mL | 2.05 | detectable in the plasma | 106 | significant evidence of tissue damage in the skin and tumor cell death | significantly decreased | decrease in Tcf7 levels
